Measured values as given in the supplement of paper PMC13380429.

Columns and labels:
Settings in all cases: 72 h
Caco-2 [1] = assay: drug sensitivity score (DSS) for viability; higher = more toxic; extreme values may be limits of the assay
HepG2 [2] = assay: as above
Calu-3 [3] = assay: as above
U2OS [4] = assay: as above
Vero E6 [5] = assay: as above
Caco-2 [6] = assay: relative viability EC50 (midpoint between 100% and the lowest measured viability); higher = less toxic
HepG2 [7] = assay: as above
Calu-3 [8] = assay: as above
U2OS [9] = assay: as above
Vero E6 [10] = assay: as above
Caco-2 [11] = assay: cell viability relative to DMSO; higher = less toxic
HepG2 [12] = assay: as above
Calu-3 [13] = assay: as above
U2OS [14] = assay: as above
Vero E6 [15] = assay: as above

SMILES | drug sensitivity score (Caco-2 [1]) | drug sensitivity score (HepG2 [2]) | drug sensitivity score (Calu-3 [3]) | drug sensitivity score (U2OS [4]) | drug sensitivity score (Vero E6 [5]) | relative viability EC50 (Caco-2 [6]) [µM] | relative viability EC50 (HepG2 [7]) [µM] | relative viability EC50 (Calu-3 [8]) [µM] | relative viability EC50 (U2OS [9]) [µM] | relative viability EC50 (Vero E6 [10]) [µM] | cell viability (Caco-2 [11]; 1 nM) [%] | cell viability (Caco-2 [11]; 10 nM) [%] | cell viability (Caco-2 [11]; 100 nM) [%] | cell viability (Caco-2 [11]; 1000 nM) [%] | cell viability (Caco-2 [11]; 10000 nM) [%] | cell viability (HepG2 [12]; 1 nM) [%] | cell viability (HepG2 [12]; 10 nM) [%] | cell viability (HepG2 [12]; 100 nM) [%] | cell viability (HepG2 [12]; 1000 nM) [%] | cell viability (HepG2 [12]; 10000 nM) [%] | cell viability (Calu-3 [13]; 1 nM) [%] | cell viability (Calu-3 [13]; 10 nM) [%] | cell viability (Calu-3 [13]; 100 nM) [%] | cell viability (Calu-3 [13]; 1000 nM) [%] | cell viability (Calu-3 [13]; 10000 nM) [%] | cell viability (U2OS [14]; 1 nM) [%] | cell viability (U2OS [14]; 10 nM) [%] | cell viability (U2OS [14]; 100 nM) [%] | cell viability (U2OS [14]; 1000 nM) [%] | cell viability (U2OS [14]; 10000 nM) [%] | cell viability (Vero E6 [15]; 1 nM) [%] | cell viability (Vero E6 [15]; 10 nM) [%] | cell viability (Vero E6 [15]; 100 nM) [%] | cell viability (Vero E6 [15]; 1000 nM) [%] | cell viability (Vero E6 [15]; 10000 nM) [%]
CC(O)COC[C@H]1O[C@@H]2O[C@H]3[C@H](O)[C@@H](O)[C@@H](O[C@H]4[C@H](O)[C@@H](O)[C@@H](O[C@H]5[C@H](O)[C@@H](O)[C@@H](O[C@H]6[C@H](O)[C@@H](O)[C@@H](O[C@H]7[C@H](O)[C@@H](O)[C@@H](O[C@H]8[C@H](O)[C@@H](O)[C@@H](O[C@H]1[C@H](O)[C@H]2O)O[C@@H]8COCC(C)O)O[C@@H]7COCC(C)O)O[C@@H]6COCC(C)O)O[C@@H]5COCC(C)O)O[C@@H]4COCC(C)O)O[C@@H]3COCC(C)O (stereo partly drawn) [hydroxypropyl-beta-cyclodextrin] | 0 | 0 | 0 | 0 | 0 | > 10 | > 10 | > 10 | > 10 | > 10 | 92.3 | 97.1 | 103 | 100 | 95.7 | 98.6 | 97.5 | 98.3 | 95.9 | 98.2 | 100 | 91.5 | 94.8 | 98.8 | 100 | 97.5 | 98.5 | 104 | 98.2 | 98.4 | 104 | 96.1 | 102 | 101 | 103
c1ccc2c(c1)CN1CCCC1=N2 [desoxypeganine] | 0 | 0 | 0 | 0 | 0 | > 10 | > 10 | > 10 | > 10 | > 10 | 97.6 | 113 | 105 | 94.7 | 97.9 | 89.7 | 75.1 | 91.6 | 91.1 | 96.8 | 95.1 | 111 | 99.6 | 89.2 | 107 | 98.7 | 101 | 93 | 94.5 | 99.3 | 98.4 | 96.5 | 105 | 98 | 95.2
CCOC(=O)Nc1ccc(NCc2ccc(F)cc2)nc1N [flupirtine] | 0.6 | 0 | 0.5 | 0 | 0 | > 10 | > 10 | > 10 | > 10 | > 10 | 106 | 102 | 99.6 | 87.7 | 96 | 89.2 | 101 | 103 | 98.4 | 99.8 | 105 | 113 | 98.6 | 88.2 | 91.3 | 100 | 99.1 | 101 | 101 | 99.5 | 104 | 111 | 98.2 | 98.6 | 97
OC(c1ccccc1)(c1ccccc1)C12CC[N+](CCOCc3ccccc3)(CC1)CC2 [umeclidinium] | 0 | 0 | 0 | 0 | 0 | > 10 | > 10 | > 10 | > 10 | > 10 | 105 | 97.1 | 94.1 | 104 | 97.8 | 96.6 | 99.5 | 101 | 97.1 | 106 | 95.1 | 102 | 107 | 101 | 92.8 | 95.8 | 99.2 | 98.7 | 99 | 99.9 | 97 | 96.1 | 92.9 | 96.2 | 101
COC(=O)C(Cc1ccc(OCCn2c(=O)sc3cc(C(=O)c4ccccc4)ccc32)cc1)C(=O)OC | 0 | 0 | 0 | 0 | 2.1 | > 10 | > 10 | > 10 | > 10 | > 10 | 100 | 93 | 101 | 109 | 101 | 95.5 | 101 | 98.7 | 95.1 | 102 | 94.4 | 109 | 97.7 | 104 | 118 | 100 | 95.1 | 95.6 | 106 | 105 | 93.7 | 96.7 | 89.2 | 81.6 | 85.5
CCOC(=O)c1ccc(N)cc1 [benzocaine] | 0 | 0 | 0 | 0 | 0 | > 10 | > 10 | > 10 | > 10 | > 10 | 96.4 | 84.7 | 101 | 97.9 | 97 | 98.6 | 94.9 | 98.1 | 95 | 96.5 | 94 | 96 | 105 | 105 | 98.7 | 99.3 | 95.4 | 99.9 | 99.6 | 95.5 | 103 | 102 | 95.7 | 102 | 110
Fc1ccccc1-c1nc2ccn(Cc3ccc(-c4ccc(C(F)(F)F)cc4C(F)(F)F)nn3)cc-2n1 [tegobuvir] | 0 | 1.6 | 0 | 0 | 0 | > 10 | > 10 | > 10 | > 10 | > 10 | 101 | 97.8 | 95 | 99.2 | 97.1 | 103 | 97.3 | 103 | 87.6 | 81.6 | 98.2 | 93.9 | 104 | 90.3 | 104 | 101 | 102 | 97.2 | 102 | 100 | 103 | 101 | 100 | 96.1 | 98.9
CCn1c(=O)c2c(nc(/C=C/c3ccc(OC)c(OC)c3)n2C)n(CC)c1=O [istradefylline] | 0 | 0 | 0 | 0 | 0 | > 10 | > 10 | > 10 | > 10 | > 10 | 97.7 | 89.7 | 104 | 103 | 106 | 97.1 | 94.1 | 101 | 98.9 | 112 | 87.5 | 93.8 | 94.4 | 101 | 103 | 102 | 97.9 | 101 | 104 | 102 | 103 | 97.1 | 93.6 | 96.4 | 104
O=C(O)/C=C/c1ccc(Cn2ccnc2)cc1 [ozagrel] | 0 | 0 | 0 | 0 | 0 | > 10 | > 10 | > 10 | > 10 | > 10 | 92.4 | 101 | 96.7 | 98.6 | 94.9 | 95 | 91.9 | 101 | 95.7 | 100 | 98 | 100 | 99.7 | 106 | 92.3 | 97.8 | 100 | 95.1 | 99.7 | 93.2 | 97.5 | 103 | 95.2 | 101 | 101
Cc1[nH]c2ccc(F)cc2c1-c1nc2c3cccnc3c3ncccc3c2[nH]1 [APTO-253] | 0.6 | 4.5 | 13 | 7 | 0 | > 10 | 2.07 | 0.639 | 1.47 | > 10 | 95.9 | 100 | 94.7 | 88.3 | 90.3 | 93.2 | 97.2 | 96.7 | 92.1 | 42 | 111 | 93.9 | 95.2 | 36.6 | 5.3 | 96.7 | 96.6 | 97.9 | 80.1 | 27.4 | 96.2 | 94.6 | 94 | 95.9 | 86.9
CNC(=O)CN(CCN(CCN(CC(=O)[O-])CC(=O)NC)CC(=O)[O-])CC(=O)[O-].[Gd+3] [gadodiamide] | 0 | 0 | 0 | 0 | 0 | > 10 | > 10 | > 10 | > 10 | > 10 | 92.9 | 98.9 | 90.9 | 91.1 | 103 | 96.6 | 102 | 108 | 98.6 | 93.1 | 115 | 96.9 | 105 | 98.8 | 108 | 103 | 102 | 96.6 | 98.3 | 98.1 | 97.6 | 101 | 98.5 | 97.9 | 94.3
O=C(O)[C@H]1CN(C/C=C/P(=O)(O)O)CCN1 [midafotel] | 0 | 0 | 0 | 0 | 0 | > 10 | > 10 | > 10 | > 10 | > 10 | 102 | 101 | 97.4 | 102 | 98.3 | 97.5 | 94 | 104 | 93.1 | 107 | 97.6 | 94.8 | 105 | 111 | 97.4 | 96.3 | 104 | 99 | 103 | 106 | 95.5 | 93.9 | 95.6 | 91.9 | 106
Cc1ccc(-c2n[nH]c3c2C(c2cccc(O)c2)N(c2ccc(C(=O)O)cc2)C3=O)cc1 (stereo not given) | 0 | 0 | 0 | 0 | 0 | > 10 | > 10 | > 10 | > 10 | > 10 | 93.4 | 99.2 | 87 | 100 | 100 | 111 | 101 | 114 | 93.4 | 103 | 92 | 105 | 98.6 | 99.9 | 88.2 | 90.5 | 96.2 | 99.1 | 99.7 | 98.1 | 102 | 104 | 101 | 95.8 | 101
